Source: patent publication US20040009464A1, “Methods for identifying compounds for inhibition of neoplastic lesions, and pharmacetical compositions containing such compounds” (priority 1998, published 2004)

Legend:
HT-29 cells = assay: Apoptosis and necrosis by morphology (acridine orange/ethidium bromide) in HT-29 cells; type: cell-based, human; settings: HT-29 treated for six days
From the text: Apoptosis occurs naturally during normal tissue turnover and during embryonic development of organs and limbs. Apoptosis also is induced by cytotoxic T-lymphocytes and natural killer cells, by ionizing radiation and by certain chemotherapeutic drugs. Inappropriate regulation of apoptosis is thought to play an important role in many pathological conditions including cancer, AIDS, or Alzheimer's disease, etc. Compounds can be screened for induction of apoptosis using cultures of tumor cells maintained under conditions as described above. Treatment of cells with test compounds involves either pre- or post-confluent cultures and treatment for two to seven days at various concentrations. Apoptotic cells are measured in both the attached and “floating” compartments of the cultures. Both compartments are collected by removing the supernatant, trypsinizing the attached cells, and combining both preparations following a centrifugation wash step (10 minutes, 2000 rpm). The protocol for treating tumor cell cultures with sulindac and related compounds to obtain a significant amount of apoptosis has been described in the literature. […]
The apoptosis inducing activity for a series of phosphodiesterase inhibitors was determined. […] Apoptosis and necrosis were determined morphologically after acridine orange and ethidium bromide labeling in accordance with the assay described, supra.

[1] = system: premalignant lesions in mouse mammary gland organ culture; assay: Mammary gland organ culture model; type: cell-based; settings: FIG. 17
From the text: Test compounds identified by the above methods can be tested for antineoplastic activity by their ability to inhibit the incidence of pre-neoplastic lesions in a mammary gland organ culture system. This mouse mammary gland organ culture technique has been successfully used by other investigators to study the effects of known antineoplastic agents such as certain NSAIDs, retinoids, tamoxifen, selenium, and certain natural products, and is useful for validation of the screening method of the present invention.
For example, female BALB/c mice can be treated with a combination of estradiol and progesterone daily, in order to prime the glands to be responsive to hormones in vitro. The animals are sacrificed, and thoracic mammary glands are excised aseptically and incubated for ten days in growth media supplemented with insulin, prolactin, hydrocortisone, and aldosterone. DMBA (7,12-dimethylbenz(a)anthracene) is added to medium to induce the formation of premalignant lesions Fully developed glands are then deprived of prolactin, hydrocortisone, and aldosterone, resulting in the regression of the glands but not the pre-malignant lesions.
The test compound is dissolved in DMSO and added to the culture media for the duration of the culture period. At the end of the culture period, the glands are fixed in 10% formalin, stained with alum camine, and mounted on glass slides. The incidence of forming mammary lesions is the ratio of the glands with mammary lesions to […]. The incidence of mammary lesions in test compound treated glands is compared with that of the untreated glands.
The extent of the area occupied by the mammary lesions can be quantitated by projecting an image of the gland onto a digitation pad. The area covered by the gland is traced on the pad and considered as 100% of the area. The space covered by each of the non-regressed structures is also outlined on the digitization pad and quantitated by the computer.
Mammary gland organ culture experiment were performed as previously described (Mehta and Moon, Cancer Research, 46: 5832-5835, 1986). […]

[2] = system: β-catenin and PKG in SW480 cells; assay: Western blot of β-catenin and PKG in SW480 cells; type: cell-based, human
Experimental: SW480 cells treated with exisulind as described previously are harvested from the microfuge tubes by rinsing once with ice-cold PBS. The cells are lysed by modified RIPA buffer for 15 minutes with agitation. The cell lysate is spun down in a cold room. The supernatants are transferred to fresh microcentrifuge tubes immediately after spinning. BioRad DC Protein Assay (Temecula, CA) is performed to determine the protein concentrations in samples. The samples are normalized for protein concentration, as described above.
50 μg of each sample is loaded to 10% SDS gel. SDS-PAGE is performed, and the proteins then are transferred to a nitrocellulose membrane. The blotted nitrocellulose membrane are blocked in freshly prepared TBST containing 5% nonfat dry milk for one hour at room temperature with constant agitation.
A goat-anti-PKG primary antibody is diluted to the recommended concentration/dilution in fresh TBST/5% nonfat dry milk. The nitrocellulose membrane is placed in the primary antibody solution and incubated one hour at room temperature with agitation. The nitrocellulose membrane is washed three times for ten minutes each with TBST. […]
This observation was made by culturing SW480 cells with either 200, 400 or 600 μM exisulind or vehicle (0.1% DMSO). […] Immuno-reactive protein can be detected by Western blot. […]

Compound: CC1=C(CC(=O)O)c2cc(F)ccc2/C1=C\c1ccc(S(C)(=O)=O)cc1 [Exisulind, 5-fluoro-2-methyl-1-(p-methylsulfonylbenzylidene)-3-indenylacetic acid]
- apoptotic and necrotic cell death (HT-29 cells): capable of causing apoptotic cell death without inducing necrosis
- inhibition of premalignant lesions in mammary gland organ culture [1]: effectively inhibit the formation of premalignant lesions
- reduction of β-catenin expression compared to control ([2]; SW480, 200, 400 or 600 μM, 48 hours, Western blot): 50%
- PKG level by Western blot ([2]; SW480, 48 hours): increase of PKG
